Reference: PubChem BioAssay AID298 (DTP/NCI, 2004)
Values joined by “and” are separate entries in the source; they are usually repeats but may differ in a detail not shown here. Equal values may be shown once. Results filed as inconclusive are left out.

System: MX-1 breast xenograft, intrarenal, nude mice, tumor weight
Assay: NCI In Vivo Anticancer Drug Screen. Data for tumor model Human Mammary Carcinoma MX-1 Xenograft (intrarenal inoculation) in NU/NU BALB/C (nude) mice
Settings: endpoint: mean tumor weight change, higher = larger tumour
Procedure, shortened: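 Compounds were given to mice carrying transplanted tumors, and tumor size or survival was measured. Each value is the treated-group measurement (T) divided by the vehicle-treated control-group measurement (C).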

[1] = dose: 300.0 mg/kg/injection, schedule: Q04DX003 (ip), vehicle: saline with Tween-80
[2] = dose: 600.0 mg/kg/injection, schedule: Q04DX003 (ip), vehicle: saline with Tween-80
[3] = dose: 1200.0 mg/kg/injection, schedule: Q04DX003 (ip), vehicle: saline with Tween-80
[4] = dose: 300.0 mg/kg/injection, schedule: Q04DX003 (sc), vehicle: saline with Tween-80
[5] = dose: 150.0 mg/kg/injection, schedule: Q04DX003 (ip), vehicle: DMSO
[6] = dose: 300.0 mg/kg/injection, schedule: Q04DX003 (ip), vehicle: DMSO
[7] = dose: 600.0 mg/kg/injection, schedule: Q04DX003 (ip), vehicle: DMSO
[8] = dose: 50.0 mg/kg/injection, schedule: Q04DX003 (ip), vehicle: Klucel (hydroxypropylcellulose) (HPC)
[9] = dose: 100.0 mg/kg/injection, schedule: Q04DX003 (ip), vehicle: Klucel (hydroxypropylcellulose) (HPC)
[10] = dose: 200.0 mg/kg/injection, schedule: Q04DX003 (ip), vehicle: Klucel (hydroxypropylcellulose) (HPC)
[11] = dose: 300.0 mg/kg/injection, schedule: Q04DX003 (ip), vehicle: Klucel (hydroxypropylcellulose) (HPC)
[12] = dose: 600.0 mg/kg/injection, schedule: Q04DX003 (ip), vehicle: Klucel (hydroxypropylcellulose) (HPC)

CSCCC(N)C(=O)O (stereo not drawn)
T/C [1]: 101 % of control | T/C [2]: 85 % of control and 105 % of control | T/C [3]: 102 % of control and 112 % of control | T/C (dose: 2400.0 mg/kg/injection, schedule: Q04DX003 (ip), vehicle: saline with Tween-80): 91 % of control and 106 % of control

C[C@]12CC[C@@H]3c4ccc(OC(=O)Cc5ccc(N(CCCl)CCCl)cc5)cc4CC[C@H]3[C@@H]1CC[C@@H]2OC(=O)Cc1ccc(N(CCCl)CCCl)cc1
T/C [4]: 98 % of control | T/C (dose: 600.0 mg/kg/injection, schedule: Q04DX003 (sc), vehicle: saline with Tween-80): 24 % of control | T/C (dose: 1200.0 mg/kg/injection, schedule: Q04DX003 (sc), vehicle: saline with Tween-80): 7 % of control

CC(C)(C)c1ccc(C(=O)N2CCOC23CCCCC3)cc1
T/C (dose: 150.0 mg/kg/injection, schedule: Q04DX003 (ip), vehicle: saline with Tween-80): 69 % of control and 87 % of control | T/C [1]: 96 % of control and 112 % of control | T/C [2]: 80 % of control and 88 % of control | T/C [3]: 95 % of control and 106 % of control

CC(CNC(=O)C12CC3CC(CC(C3)C1)C2)NC(=O)C12CC3CC(CC(C3)C1)C2 (stereo not drawn)
T/C (dose: 75.0 mg/kg/injection, schedule: Q04DX003 (ip), vehicle: DMSO): 82 % of control | T/C [5]: 95 % of control | T/C [6]: 106 % of control | T/C [7]: 105 % of control

S=C(N/N=C1/CCCC/C1=N/NC(=S)N1CCOCC1)N1CCOCC1
T/C (dose: 6.25 mg/kg/injection, schedule: Q04DX003 (ip), vehicle: saline with Tween-80): 81 % of control | T/C (dose: 12.5 mg/kg/injection, schedule: Q04DX003 (ip), vehicle: saline with Tween-80): 76 % of control | T/C (dose: 25.0 mg/kg/injection, schedule: Q04DX003 (ip), vehicle: saline with Tween-80): 48 % of control

O=C1c2ccccc2C(=O)c2c1cn1c2Cc2ccccc2C1
T/C [8]: 72 % of control | T/C [9]: 37 % of control | T/C [10]: 26 % of control | T/C (dose: 400.0 mg/kg/injection, schedule: Q04DX003 (ip), vehicle: Klucel (hydroxypropylcellulose) (HPC)): 35 % of control

CCCCOCN(COCCCC)C12CC3CC(CC(C3)C1)C2
T/C (dose: 100.0 mg/kg/injection, schedule: Q04DX003 (sc), vehicle: saline with Tween-80): 48 % of control | T/C (dose: 200.0 mg/kg/injection, schedule: Q04DX003 (sc), vehicle: saline with Tween-80): 45 % of control | T/C (dose: 400.0 mg/kg/injection, schedule: Q04DX003 (sc), vehicle: saline with Tween-80): 76 % of control

O=C1CC2(C(=O)N1CN1CCOCC1)c1ccccc1-c1ccccc12
T/C [11]: 97 % of control | T/C [12]: 72 % of control

C=CCCC(=O)CCCC(=O)O[C@@H]1[C@@H]2[C@H](CC1(C)C)[C@H](O)[C@@]13O[C@@H]1[C@H](O)[C@@]1(CO1)[C@@]23C
T/C (dose: 0.4 mg/kg/injection, schedule: Q04DX003 (ip), vehicle: Klucel (hydroxypropylcellulose) (HPC)): 79 % of control | T/C (dose: 0.8 mg/kg/injection, schedule: Q04DX003 (ip), vehicle: Klucel (hydroxypropylcellulose) (HPC)): 82 % of control | T/C (dose: 1.6 mg/kg/injection, schedule: Q04DX003 (ip), vehicle: Klucel (hydroxypropylcellulose) (HPC)): 92 % of control | T/C (dose: 3.2 mg/kg/injection, schedule: Q04DX003 (ip), vehicle: Klucel (hydroxypropylcellulose) (HPC)): 81 % of control | T/C (dose: 100.0 micrograms/kg/injection, schedule: Q04DX003 (ip), vehicle: Klucel (hydroxypropylcellulose) (HPC)): 120 % of control | T/C (dose: 200.0 micrograms/kg/injection, schedule: Q04DX003 (ip), vehicle: Klucel (hydroxypropylcellulose) (HPC)): 97 % of control | T/C (dose: 400.0 micrograms/kg/injection, schedule: Q04DX003 (ip), vehicle: Klucel (hydroxypropylcellulose) (HPC)): 89 % of control | T/C (dose: 800.0 micrograms/kg/injection, schedule: Q04DX003 (ip), vehicle: Klucel (hydroxypropylcellulose) (HPC)): 121 % of control

O=C(O)CC(NC(=O)CP(=O)(O)O)C(=O)O (stereo not drawn)
T/C (dose: 50.0 mg/kg/injection, schedule: Q01DX010 (sc), vehicle: saline): 36 % of control | T/C (dose: 100.0 mg/kg/injection, schedule: Q01DX010 (sc), vehicle: saline): 16 % of control | T/C (dose: 200.0 mg/kg/injection, schedule: Q01DX010 (sc), vehicle: saline): 5 % of control

NC(=S)N/N=C/c1ncccc1O
T/C (dose: 150.0 mg/kg/injection, schedule: Q04DX003 (ip), vehicle: suspension in saline): 86 % of control | T/C (dose: 300.0 mg/kg/injection, schedule: Q04DX003 (ip), vehicle: suspension in saline): 93 % of control

C[n+]1c(/C=N/NC(N)=S)ccc2ccccc21
T/C [4]: 78 % of control

CN1CCN(CN2C(=O)C3C4C=CC(C3C2=O)C2C3C(=O)N(CN5CCN(C)CC5)C(=O)C3C42)CC1 (stereo not drawn)
T/C (dose: 9.3 mg/kg/injection, schedule: Q04DX003 (ip), vehicle: water): 98 % of control | T/C (dose: 18.75 mg/kg/injection, schedule: Q04DX003 (ip), vehicle: water): 106 % of control | T/C (dose: 25.0 mg/kg/injection, schedule: Q04DX003 (ip), vehicle: water): 67 % of control | T/C (dose: 37.5 mg/kg/injection, schedule: Q04DX003 (ip), vehicle: water): 83 % of control | T/C (dose: 50.0 mg/kg/injection, schedule: Q04DX003 (ip), vehicle: water): 52 % of control | T/C (dose: 75.0 mg/kg/injection, schedule: Q04DX003 (ip), vehicle: other): 122 % of control | T/C (dose: 75.0 mg/kg/injection, schedule: Q04DX003 (ip), vehicle: water): 72 % of control and 94 % of control | T/C (dose: 100.0 mg/kg/injection, schedule: Q04DX003 (ip), vehicle: water): 45 % of control

C[n+]1ccc2cc(N)c3c4ccccc4sc3c2c1
T/C (dose: 12.5 mg/kg/injection, schedule: Q04DX003 (sc), vehicle: saline with Tween-80): 96 % of control | T/C (dose: 25.0 mg/kg/injection, schedule: Q04DX003 (sc), vehicle: saline with Tween-80): 100 % of control

CCC1(O)C(=O)OCc2c1cc1n(c2=O)Cc2cc3cc(N)ccc3nc2-1 (stereo not drawn)
T/C (dose: 1.88 mg/kg/injection, schedule: Q04DX003 (ip), vehicle: suspension in saline): 5 % of control | T/C (dose: 3.75 mg/kg/injection, schedule: Q04DX003 (ip), vehicle: suspension in saline): 1 % of control | T/C (dose: 7.5 mg/kg/injection, schedule: Q04DX003 (ip), vehicle: suspension in saline): -100 % of control | T/C (dose: 15.0 mg/kg/injection, schedule: Q04DX003 (ip), vehicle: suspension in saline): -100 % of control

CC(/C=N/N=C(N)N)=N\N=C(N)N
T/C (dose: 25.0 mg/kg/injection, schedule: Q01DX010 (sc), vehicle: water): 167 % of control | T/C (dose: 50.0 mg/kg/injection, schedule: Q01DX010 (sc), vehicle: water): 73 % of control | T/C (dose: 100.0 mg/kg/injection, schedule: Q01DX010 (sc), vehicle: water): 43 % of control

NCCCNCCCCNC(=O)C(O)NC(=O)CC(O)CCCCN=C(N)N (stereo not drawn)
T/C (dose: 12.5 mg/kg/injection, schedule: Q04DX003 (ip), vehicle: saline): 100 % of control | T/C (dose: 25.0 mg/kg/injection, schedule: Q04DX003 (ip), vehicle: saline): 93 % of control | T/C (dose: 50.0 mg/kg/injection, schedule: Q04DX003 (ip), vehicle: saline): 29 % of control and 44 % of control | T/C (dose: 100.0 mg/kg/injection, schedule: Q04DX003 (ip), vehicle: saline): 53 % of control and 56 % of control

Nc1ccc(S(=O)(=O)Nc2cnc3c(Cl)cccc3n2)cc1
T/C [5]: 103 % of control | T/C [6]: 49 % of control | T/C [7]: 75 % of control

CCOC(=O)Nc1cc(NC(C)/C(=N/O)c2ccccc2)c([N+](=O)[O-])c(N)n1 (stereo not drawn)
T/C (dose: 18.75 mg/kg/injection, schedule: Q04DX003 (ip), vehicle: Klucel (hydroxypropylcellulose) (HPC)): 84 % of control | T/C (dose: 37.5 mg/kg/injection, schedule: Q04DX003 (ip), vehicle: Klucel (hydroxypropylcellulose) (HPC)): 60 % of control | T/C (dose: 75.0 mg/kg/injection, schedule: Q04DX003 (ip), vehicle: Klucel (hydroxypropylcellulose) (HPC)): 72 % of control

O=C1CNC(=O)N1CN1CCOCC1
T/C (dose: 150.0 mg/kg/injection, schedule: Q04DX003 (ip), vehicle: Klucel (hydroxypropylcellulose) (HPC)): 83 % of control | T/C [11]: 89 % of control | T/C [12]: 81 % of control

O=S(=O)(c1cccc(N=C=S)c1)c1cccc(N=C=S)c1
T/C [8]: 121 % of control | T/C [9]: 83 % of control | T/C [10]: 82 % of control

Brc1c(NC2=NCCN2)ccc2nccnc12
T/C (dose: 50.0 mg/kg/injection, schedule: Q04DX003 (sc), vehicle: saline): 69 % of control | T/C (dose: 100.0 mg/kg/injection, schedule: Q04DX003 (sc), vehicle: saline): 57 % of control | T/C (dose: 200.0 mg/kg/injection, schedule: Q04DX003 (sc), vehicle: saline): 41 % of control | T/C (dose: 400.0 mg/kg/injection, schedule: Q04DX003 (sc), vehicle: saline): 23 % of control
